The values below come from patent US10457662B2, “Substituted amides for treating and preventing cancer” (The Regents of the University of Michigan, priority 2015, dated 2019).

“Also recorded” adds a separate entry of the source.

For series [1], the system named is GRP78, CHOP, ATF3, GDF15. Briefly: Western blotting of stress responsive proteins in MiaPaCa-2. As to conditions: 72 h, western blotting. It is filed as cell-based. As to the method:
FIG. 11: QN523 induces protein expression of stress markers dose-dependently.
This example describes the validation of biomarkers GDF15, ATF3, DDIT3, HSPA5, WIPI1, GABARAPL1 and MAP1LC3B in pancreatic cancer cell lines. To validate the findings from bioinformatics analysis basing on Bru-seq experiments, the proposed biomarkers were further tested in pancreatic cancer cell lines. […] However, the potency of Sulindac is much lower than that of QN523, with IC50 of 300 μM in MiaPaCa-2.
In addition, primary antibodies for LC3B, survivin, cyclin D1, Stat3 and phosphorylated Stat3 (Y705) are from Cell Signaling Technology.

For series [2], the system named is SNU449. Put plainly: MTT assay, SNU449. As to conditions: Homo sapiens, SNU-449, HCC cell line. It is filed as cell-based. As to the method:
(§1) In order to understand its potential selectivity for different types of cancer and choose the best model for further characterization, QN523 was tested in a panel of 12 cancer cell lines with various genetic and pathological backgrounds (Table 2). […] Because of remarkable potency of QN-523 in pancreatic cancer in-depth preclinical studies in this disease model were performed.

The subject of series [3] is MiaPaCa-2 cells. Put plainly: DAVID analysis of Bru-seq gene lists. As to conditions: genes changed at least 2 fold. As to the method: Histogram represents statistical significance in regulation of the indicated theme.
The lists were also analyzed by Database for Annotation, Visualization and Integrated Discovery (DAVID), which identify enriched biological themes with particular focus on gene ontology terms, as well as functional-related gene groups (see, e.g., Huang da W, Sherman B T, Lempicki R A (2009) Nature protocols 4(1): 44-57; Huang da W, Sherman B T, Lempicki R A (2009) Nucleic acids research 37(1): 1-13). […] In addition, induction of apoptosis and disruption of cell cycle might be important cellular events contributing to cytotoxicity of QN523.
Top functional terms identified by DAVID are reported.

In series [4] the test system is MiaPaCa-2. Put plainly: Colony formation assay, MiaPaCa-2. It is filed as cell-based. The conditions noted are these: 0.1 μM; 24 h treatment. An excerpt:
A) QN523 inhibits colony formation in PDAC cell lines. […] Data points represent Mean±SD from three independent experiments.
The cytotoxicity of QN523 was further evaluated in three pancreatic cancer cell lines using colony formation assay. Using numbers and sizes of colonies as the experimental readout, this long-term assay estimates both anti-proliferative and cytotoxic effect.

Series [5] relates to HCT116 p53+/+. Briefly: MTT assay, HCT116 p53+/+. It counts as cell-based. The conditions noted are these: Homo sapiens, HCT-116, MTT assay; colorectal cancer cell line. As to the method: as §1
A general note: Tetrazolium dyes change colour on reduction, which living cells bring about.

Series [6] relates to three pancreatic cancer cell lines. Briefly: MTT assay, three pancreatic cancer cell lines. It is filed as cell-based. The conditions noted are these: read-out: Mark: IC50 lower than 1 μM in at least one cell line, Table 1.
Procedure: Initially, the 50 analogs were tested in three pancreatic cancer cell lines using MTT assay (Table 1).
Series [7] concerns Hep3B. Put plainly: MTT assay, Hep3B. It counts as cell-based. The conditions noted are these: Homo sapiens, HCC cell line. As to the method:
as §1

The subject of series [8] is MiaPaCa-2 xenograft. Briefly: MiaPaCa-2 xenograft in NOD/SCID mice. It counts as in vivo. As to the method: FIG. 2A-E: QN523 inhibits tumor growth of MiaPaCa-2 xenograft without systemic cytotoxicity. A) Tumor volume of MiaPaCa-2 xenograft of vehicle or QN523 treated mice. MiaPaCa-2 xenograft was established in NOD/SCID mice. When tumor size reached 100 mm^3, mice were randomized into vehicle control group (n=5) or treatment group (n=5). QN523 was given by i.p. injection five times a week at 10 mg/kg from day 1 to day 9, then at 20 mg/kg from day 10 to day 44. B) Body weight of vehicle of QN523 treated mice. Representative micrographs of hematoxylin and eosin (H&E)-stained organ sections. Images were taken with Olympus IX83 inverted microscope at 20× magnification. […] D) Tumor volumes of study continued after data shown in panel A. QN523 was given at 20 mg/kg five times a week until day 44. Three mice from each group were euthanized for tissue analysis. Two mice remained in each group after day 44 and QN523 dose was increased to 30 mg/kg from day 45, then to 40 mg/kg from day 51 to day 60. E) Body weight of engrafted mice was not affected by QN523 treatment at 10-40 mg/kg. Error bars indicate Mean±SEM.
To further evaluate the therapeutic potentials of QN523 in pancreatic cancer, MiaPaCa-2 xenograft were implanted in NOD/SCID mice. When tumor size reached 100 mm^3, mice were randomized to either vehicle control (n=5) or QN523 treatment (n=5) group. QN523 was initially given at 10 mg/kg with intraperitoneal administration.

In series [9] the test system is Ovcar 8. Briefly: MTT assay, Ovcar 8. It counts as cell-based. The conditions noted are these: Homo sapiens. The method, then: as §1
Series [10] has as its system Jurkat. Put plainly: MTT assay, Jurkat. It is filed as cell-based. As to conditions: Homo sapiens, leukemia cell line. As to the method:
as §1

What is called IC50 is the concentration at which inhibition is half-maximal. With `O=C(Nc1cccc2cccnc12)c1cnccn1` [QN523, Pyrazine-2-carboxylic acid quinolin-8-ylamide], the “protein levels of stress responsive markers HSPA5, DDIT3, ATF3 and GDF15” value in series [1] is given as “dose dependent upregulation”. Besides, the IC50 was 400 nM in series [2]; roughly 100 nM in [5]; less than 1000 nM in series [6]; 210 nM in [7]; 300 nM in series [9]; roughly 100 nM in series [10]. The biological themes downregulated entry in series [3] is “chromosomal proteins and cell cycle genes”. Moreover, the biological themes upregulated entry in [3] was “Apoptosis, (bZIP) transcription factors, ER related genes and stress responses”. In series [4], the “suppression of MiaPaCa-2 colonies” value is “complete suppression of MiaPaCa-2 colonies”. The “delay in tumor growth” value in series [8] (10 mg/kg i.p., day 1 to day 9) is reported as “no significant delay in tumor growth”. Moreover, the “day from which xenograft growth was delayed” value in series [8] (20 mg/kg i.p. from day 10, p<0.01) is no less than 17 days. Further, in series [8] (30 mg/kg from day 45, 40 mg/kg day 51 to 60, two mice), the “tumor growth at higher doses” value is recorded as “able to delay growth of the tumors”. In [8] (10-20 mg/kg i.p., 44 days), the “symptoms of gross toxicity (weakness, weight loss, lethargy)” value is “No symptoms of gross toxicity”. For the same compound, the “body weight of engrafted mice” value in series [8] (10-40 mg/kg) was “not affected”. Further, in series [8] (after 44-day treatment), the “H&E stained organ sections (liver, kidney, heart, lung, spleen, pancreas)” value is given as “did not reveal major histopathological changes”. This compound also displayed a mean tumor volume in series [8] (day 44, 10 then 20 mg/kg i.p. five times a week) of 259±38 mm^3. Besides, the “inhibition of tumor growth” value in series [8] (day 44 versus vehicle control) was 80%. Further, the systemic toxicity entry in series [8] (doses as high as 40 mg/kg) is recorded as “no systemic toxicity”. Besides, the “Ki67 in tumor tissues” value in series [8] (immunohistochemistry of xenograft sections) is recorded as “decreased Ki67 levels; also recorded: decreased Ki67 index”.
